Columns and labels:
[1] = tested on: Subjects With Active Crohn's Disease With Evidence of Mucosal Ulceration; test: Study 3 - Alanine Aminotransferase (ALT) levels; format: in vivo, human
Excerpt: Double-Blind, Randomized, Placebo-Controlled, Multi-Centre Study to Investigate the Efficacy and Safety of Compound 1 in Subjects With Active Crohn's Disease With Evidence of Mucosal Ulceration. This is a double-blind, randomized, placebo-controlled, multi-centre Phase 2 study to investigate the efficacy and safety of Compound 1 administered once daily for the treatment of active CD with evidence of mucosal ulceration. The pharmacokinetics (including a PK substudy) and pharmacodynamics of Compound 1 and metabolite in CD will also be characterised. A total of 180 eligible subjects will be randomized to receive Compound 1 or placebo in addition to their stable background treatment (eg, corticosteroids, aminosalicylates, or CD-related antibiotics). The study will consist of 2 parts, with total treatment duration of 20 weeks. Randomization in Part 1 will be stratified according the subject's previous anti-TNF exposure/response, CRP level at Screening, and oral corticosteroid use at visit Day −1. After the first 10 weeks of treatment in Part 1, patients will be re-randomized for Part 2 as shown in the diagram below and will be stratified according to the subject's clinical response, previous anti-TNF exposure/response, and oral corticosteroid use at visit Day -1. [table] ALT levels determination is available at Quest Diagnostics, Clinical Trials, Quest House, 125-135 Staines Road, Hounslow, Middlesex, TW3 3JB, United Kingdom under Catalogue n#84460. ALT catalyzes the exchange of the amino group of alanine with the oxogroup of 2-ketoglutarate to form pyruvate and glutamate. In the presence of lactic dehydrogenase, pyruvate reacts with NADH to form NAD+, measured spectrophotometrically. Guidelines for the ALT value have been issued by the association for Clinical Biochemistry and Laboratory Medicine, 130-132 Tooley Street LONDON SE1 2TU, united Kingdom, wherein the ALT value should be below 34 U/l in Female and below 52 U/L in male.

[2] = tested on: Subjects With Active Crohn's Disease With Evidence of Mucosal Ulceration; test: Study 3 - CRP levels (pharmacodynamics); format: in vivo, human; settings: 200 mg; week 10; LOCF
Excerpt: Double-Blind, Randomized, Placebo-Controlled, Multi-Centre Study to Investigate the Efficacy and Safety of Compound 1 in Subjects With Active Crohn's Disease With Evidence of Mucosal Ulceration. This is a double-blind, randomized, placebo-controlled, multi-centre Phase 2 study to investigate the efficacy and safety of Compound 1 administered once daily for the treatment of active CD with evidence of mucosal ulceration. The pharmacokinetics (including a PK substudy) and pharmacodynamics of Compound 1 and metabolite in CD will also be characterised. A total of 180 eligible subjects will be randomized to receive Compound 1 or placebo in addition to their stable background treatment (eg, corticosteroids, aminosalicylates, or CD-related antibiotics). The study will consist of 2 parts, with total treatment duration of 20 weeks. Randomization in Part 1 will be stratified according the subject's previous anti-TNF exposure/response, CRP level at Screening, and oral corticosteroid use at visit Day −1. After the first 10 weeks of treatment in Part 1, patients will be re-randomized for Part 2 as shown in the diagram below and will be stratified according to the subject's clinical response, previous anti-TNF exposure/response, and oral corticosteroid use at visit Day -1. [table] CRP determination is available at Quest Diagnostics, Clinical Trials, Quest House, 125-135 Staines Road, Hounslow, Middlesex, TW3 3JB, United Kingdom under Catalogue n#86140. The determination of CRP is made using Immunoturbidimetric assay for the in vitro quantitative determination of CRP in human serum and plasma on Roche/Hitachi cobas c systems, wherein human CRP agglutinates with latex particles coated with monoclonal anti-CRP antibodies. The aggregates are determined turbidimetrically (Eda et al., 1998; Price et al., 1987). Human serum and plasma samples CRP determination was done on a Roche/Hitachi Cobas c 301 c 501/502 system which automatically calculate the analyte concentration of each sample. Samples containing precipitates are centrifuged before performing the assay. CRP levels are determined as previously described in section 3.6

[3] = 10 weeks results, 200 mg q.d., week 2
[4] = 10 weeks results, 200 mg q.d., week 4
[5] = 10 weeks results, 200 mg q.d., week 6
[6] = 10 weeks results, 200 mg q.d., week 10
[7] = 20 weeks results, 200 mg q.d. week 0 to 10, to 100 mg q.d. week 10 to 20, week 2
[8] = 20 weeks results, 200 mg q.d. week 0 to 10, to 100 mg q.d. week 10 to 20, week 4
[9] = 20 weeks results, 200 mg q.d. week 0 to 10, to 100 mg q.d. week 10 to 20, week 6
[10] = 20 weeks results, 200 mg q.d. week 0 to 10, to 100 mg q.d. week 10 to 20, week 10
[11] = 20 weeks results, 200 mg q.d. week 0 to 10, to 100 mg q.d. week 10 to 20, week 12
[12] = 20 weeks results, 200 mg q.d. week 0 to 10, to 100 mg q.d. week 10 to 20, week 16
[13] = 20 weeks results, 200 mg q.d. week 0 to 10, to 100 mg q.d. week 10 to 20, week 20
[14] = 20 weeks results, 200 mg q.d. week 0 to 10, to placebo week 10 to 20, week 2
[15] = 20 weeks results, 200 mg q.d. week 0 to 10, to placebo week 10 to 20, week 4
[16] = 20 weeks results, 200 mg q.d. week 0 to 10, to placebo week 10 to 20, week 6
[17] = 20 weeks results, 200 mg q.d. week 0 to 10, to placebo week 10 to 20, week 10
[18] = 20 weeks results, 200 mg q.d. week 0 to 10, to placebo week 10 to 20, week 12
[19] = 20 weeks results, 200 mg q.d. week 0 to 10, to placebo week 10 to 20, week 16
[20] = 20 weeks results, 200 mg q.d. week 0 to 10, to placebo week 10 to 20, week 20
[21] = 20 weeks results, continued 200 mg q.d., week 2
[22] = 20 weeks results, continued 200 mg q.d., week 4
[23] = 20 weeks results, continued 200 mg q.d., week 6
[24] = 20 weeks results, continued 200 mg q.d., week 10
[25] = 20 weeks results, continued 200 mg q.d., week 12
[26] = 20 weeks results, continued 200 mg q.d., week 16
[27] = 20 weeks results, continued 200 mg q.d., week 20
[28] = 20 weeks results, placebo week 0 to 10, to 100 mg q.d. week 10 to 20, week 12
[29] = 20 weeks results, placebo week 0 to 10, to 100 mg q.d. week 10 to 20, week 16
[30] = 20 weeks results, placebo week 0 to 10, to 100 mg q.d. week 10 to 20, week 20

O=C(Nc1nc2cccc(-c3ccc(CN4CCS(=O)(=O)CC4)cc3)n2n1)C1CC1 [Compound 1, cyclopropanecarboxylic acid {5-[4-(1,1-dioxo-thiomorpholin-4-ylmethyl)-phenyl]-[1,2,4]triazolo[1,5-a]pyridin-2-yl}-amide]
Study 3 - ALT Mean CFB [1, 3]: 0.0 IU/L
Study 3 - ALT Mean percentage CFB [1, 3]: 8.3%
Study 3 - ALT Mean CFB [1, 4]: −0.6 IU/L
Study 3 - ALT Mean percentage CFB [1, 4]: 5.8%
Study 3 - ALT Mean CFB [1, 5]: −1.2 IU/L
Study 3 - ALT Mean percentage CFB [1, 5]: 3.1%
Study 3 - ALT Mean CFB [1, 6]: 1.6 IU/L
Study 3 - ALT Mean percentage CFB [1, 6]: 24.4%
Study 3 - ALT Mean CFB [1, 7]: −2.03 IU/L
Study 3 - ALT Mean percentage CFB [1, 7]: −4.84%
Study 3 - ALT Mean CFB [1, 8]: −1.93 IU/L
Study 3 - ALT Mean percentage CFB [1, 8]: −3.24%
Study 3 - ALT Mean CFB [1, 9]: −1.60 IU/L
Study 3 - ALT Mean percentage CFB [1, 9]: −0.60%
Study 3 - ALT Mean CFB [1, 10]: −0.50 IU/L
Study 3 - ALT Mean percentage CFB [1, 10]: 5.92%
Study 3 - ALT Mean CFB [1, 11]: 0.03 IU/L
Study 3 - ALT Mean percentage CFB [1, 11]: 3.56%
Study 3 - ALT Mean CFB [1, 12]: 0.21 IU/L
Study 3 - ALT Mean percentage CFB [1, 12]: 8.83%
Study 3 - ALT Mean CFB [1, 13]: 6.15 IU/L
Study 3 - ALT Mean percentage CFB [1, 13]: 38.62%
Study 3 - ALT Mean CFB [1, 14]: −2.30 IU/L
Study 3 - ALT Mean percentage CFB [1, 14]: 3.63%
Study 3 - ALT Mean CFB [1, 15]: −2.04 IU/L
Study 3 - ALT Mean percentage CFB [1, 15]: 8.87%
Study 3 - ALT Mean CFB [1, 16]: −3.78 IU/L
Study 3 - ALT Mean percentage CFB [1, 16]: 1.03%
Study 3 - ALT Mean CFB [1, 17]: −1.48 IU/L
Study 3 - ALT Mean percentage CFB [1, 17]: 12.60%
Study 3 - ALT Mean CFB [1, 18]: 1.48 IU/L
Study 3 - ALT Mean percentage CFB [1, 18]: 16.15%
Study 3 - ALT Mean CFB [1, 19]: 1.90 IU/L
Study 3 - ALT Mean percentage CFB [1, 19]: 23.87%
Study 3 - ALT Mean CFB [1, 20]: −0.38 IU/L
Study 3 - ALT Mean percentage CFB [1, 20]: 17.82%
Study 3 - ALT Mean CFB [1, 21]: 1.46 IU/L
Study 3 - ALT Mean percentage CFB [1, 21]: 14.82%
Study 3 - ALT Mean CFB [1, 22]: 0.36 IU/L
Study 3 - ALT Mean percentage CFB [1, 22]: 8.36%
Study 3 - ALT Mean CFB [1, 23]: −0.17 IU/L
Study 3 - ALT Mean percentage CFB [1, 23]: 5.47%
Study 3 - ALT Mean CFB [1, 24]: 3.75 IU/L
Study 3 - ALT Mean percentage CFB [1, 24]: 38.09%
Study 3 - ALT Mean CFB [1, 25]: 3.00 IU/L
Study 3 - ALT Mean percentage CFB [1, 25]: 26.61%
Study 3 - ALT Mean CFB [1, 26]: 4.04 IU/L
Study 3 - ALT Mean percentage CFB [1, 26]: 33.15%
Study 3 - ALT Mean CFB [1, 27]: 2.53 IU/L
Study 3 - ALT Mean percentage CFB [1, 27]: 22.15%
Study 3 - ALT Mean CFB [1, 28]: −0.55 IU/L
Study 3 - ALT Mean percentage CFB [1, 28]: 10.24%
Study 3 - ALT Mean CFB [1, 29]: −1.95 IU/L
Study 3 - ALT Mean percentage CFB [1, 29]: 2.75%
Study 3 - ALT Mean CFB [1, 30]: −2.05 IU/L
Study 3 - ALT Mean percentage CFB [1, 30]: 4.96%
Serum CRP mean, % CFB [2]: 53%
Serum CRP mean, CFB [2]: -1.0 mg/L
Serum CRP median, % CFB [2]: −10%
Serum CRP median, CFB [2]: -0.4 mg/L
Serum CRP normalizing high to normal (<0.80 mg/dL), % subjects normalizing [2]: 27%
